Data from EP4741439A1, “BLOCK COPOLYMER CONTAINING REPEATING UNIT OF POLY([R, S]BETA-HYDROXYBUTYRATE), NANOPARTICLES FORMED FROM SAID COPOLYMER, AND PRODUCTION AND USE OF THOSE” (University of Tsukuba, priority 2023, dated 2025).

How the values were obtained:
[1] = tested on: cisplatin-induced acute kidney injury (AKI); assay: Protective effect on acute kidney injury by subcutaneous injection; type: in vivo, C57BL/6J male mice; conditions: subcutaneous injection about 250 mg in terms of BHB/kg, 6 hours prior to cisplatin 20 mg/kg; 72 hours after challenge
Description: C57BL/6J male mice (8 weeks old) were divided into four groups for use in different treatments. Acute kidney injury was induced by intraperitoneal injection of cisplatin (20 mg/kg). A mouse was pretreated with subcutaneous injection of physiological saline (n = 11) or sodium β-hydroxybutyrate (at a dose in terms of BHB/kg of about 250 mg, n = 1) or Nano^BHB (at a dose in terms of BHB/kg of about 250 mg, n = 10) 6 hours prior to exposure to cisplatin. The healthy group (n = 8) was injected with physiological saline instead of cisplatin. 72 hours after the cisplatin challenge, the mouse was sacrificed, and blood plasma and kidney were collected. Renal function was assessed by measuring the levels of blood urea nitrogen (BUN), creatinine (CRE), aspartate transaminase (AST). […] In the figure, (A) represents a scheme of animal experiment, (B) is a graphical representation of data on blood urea nitrogen in plasma of an AKI mouse 3 days after injection of cisplatin, (C) is a graphical representation of data on creatinine, (D) is a graphical representation of data on aspartate transaminase, (E) is a presentation image of periodic acid Schiff (PAS) staining at 20 fold magnification of kidney tissue, and (F) is a graph summarizing data of the result of quantitative measurement of a damaged region of the kidney from a stained image. […]

[2] = tested on: Bovine aortic endothelial cells (BAEC); assay: Cytotoxicity, WST cell viability; type: cell-based; conditions: 24 hours, BHB content from 0 to 25.4 mM
Description: Bovine aortic endothelial cells (BAEC) (available from RIKEN (RIKEN, Tsukuba, Japan)) were pre-seeded on a 96 well (well) plate and incubated with either Nano^BHB or BHB at different concentrations with a BHB content of from 0 to 25.4 mM in a medium. After 24 hours, the medium was discarded, followed by addition of 100 µL of medium containing 10 µL of WST agent and incubation for 4 hours. In a final process, cell viability was measured based on a ratio of optical signals of a subject well and a water treatment group well at a wavelength of 450 nm in each well.

## CC(O)CC(=O)[O-].[Na+] (stereo not drawn) [sodium β-hydroxybutyrate]
[1]
  Effect against cisplatin-induced acute kidney injury (BUN, CRE, AST, PAS staining): no decrease in renal function is observed
[2]
  survival rate and morphology of the BAEC cells: do not affect
